In ChEMBL document CHEMBL6134804, “Identifying thiourea-based hybrids of quinazoline and oxospirochromane as inhibitors of Plasmodium cysteine proteases arresting the parasitic growth at the early trophozoite stage” (Bioorg Med Chem Lett, 2025):
Active and inactive are the calls of the source. No cut-off for these calls is given here.

Assays:
Plasmodium falciparum [1] = assay: Antiplasmodial activity against sorbitol-synchronized ring stage chloroquine resistant Plasmodium falciparum W2 infected in human erythrocytes assessed as parasitic growth inhibition incubated for 48 to 50 hrs by SYBR Green 1 based microtiter plate spectrofluorimeteric analysis; assay type: functional, organism-based; details: W2, Erythrocyte
Plasmodium falciparum [2] = assay: Antiplasmodial activity against sorbitol-synchronized ring stage chloroquine sensitive Plasmodium falciparum 3D7 infected in human erythrocytes assessed as parasitic growth inhibition incubated for 48 to 50 hrs by SYBR Green 1 based microtiter plate spectrofluorimeteric analysis; assay type: functional, organism-based; details: 3D7, Erythrocyte
[3] = Resistance index, ratio of IC50 for antiplasmodial activity against chloroquine sensitive Plasmodium falciparum 3D7 infected in human erythrocytes to antiplasmodial activity against chloroquine resistant Plasmodium falciparum W2 infected in human erythrocytes; assay type: functional
A549 = assay: Cytotoxicity against human A549 cells assessed as inhibition of cell growth incubated for 24 hrs by MTT assay; assay type: functional, cell-based; details: A549, 24 h
[4] = Selectivity index, ratio of IC50 for cytotoxicity against human […] cells to antiplasmodial activity against sorbitol-synchronized ring stage chloroquine sensitive Plasmodium falciparum 3D7 infected in human erythrocytes; assay type: cell-based; details: read-out: Ratio IC50
Plasmodium falciparum [5] = assay: Antiplasmodial activity against ring stage of Plasmodium falciparum assessed as developmental arrest at early trophozoite stage at 3 times IC50 concentration measured after 48 hrs by Giemsa staining based analysis; assay type: functional, organism-based
[6] = Selectivity index, ratio of IC50 for cytotoxicity against human […] cells to antiplasmodial activity against sorbitol-synchronized ring stage chloroquine resistant Plasmodium falciparum W2 infected in human erythrocytes; assay type: cell-based; details: read-out: Ratio IC50
[7] = Inhibition of Plasmodium falcipain-2 using Z-Leu-Arg-AMC as substrate preincubated for 30 mins followed by substrate addition and measured after 30 mins by microtiter plate spectrofluorimeteric analysis
Plasmodium falciparum [8] = assay: Antiplasmodial activity against ring-stage Plasmodium falciparum assessed as reduction in formation of new rings at 3 times IC50 concentration measured after 48 hrs by Giemsa staining based analysis; assay type: functional, organism-based
[9] = Selectivity index, ratio of IC50 for cytotoxicity against African green monkey Vero cells to antiplasmodial activity against sorbitol-synchronized ring stage chloroquine sensitive Plasmodium falciparum 3D7 infected in human erythrocytes; assay type: toxicity, cell-based; details: read-out: Ratio IC50
[10] = Inhibition of Plasmodium falcipain-3 using Z-Leu-Arg-AMC as substrate preincubated for 30 mins followed by substrate addition and measured after 30 mins by microtiter plate spectrofluorimeteric analysis
[11] = Cytotoxicity against African green monkey Vero cells assessed as reduction in cell viability incubated for 72 hrs by MTT assay; assay type: toxicity, cell-based; details: African green monkey (Chlorocebus sabaeus)
[12] = Hemolytic activity in human Red blood cells assessed as hemolysis at 100 uM incubated for 2 hrs by spectrofluorimetric analysis; assay type: toxicity, cell-based; details: erythrocyte
[13] = Selectivity index, ratio of IC50 for cytotoxicity against African green monkey Vero cells to antiplasmodial activity against sorbitol-synchronized ring stage chloroquine resistant Plasmodium falciparum W2 infected in human erythrocytes; assay type: toxicity, cell-based; details: read-out: Ratio IC50
Plasmodium falciparum [14] = assay: Antiplasmodial activity against ring-stage Plasmodium falciparum assessed as enlarged feeding vacuoles with hemoglobin accumulation at 3 times IC50 concentration measured after 48 hrs by Giemsa staining based analysis; assay type: functional, organism-based
[15] = Inhibition of Plasmodium falciparum ATP4

**Q.** Which IC50 (Plasmodium falciparum [1]) does the source give for `O=C1CC2(CCN(c3nc(N4CCN(C(=S)Nc5ccc(OC(F)(F)F)cc5)CC4)nc4ccccc34)CC2)Oc2ccccc21` here?
**A.** Its IC50 is over 15 µM.

**Q.** What about the IC50 (Plasmodium falciparum [2]) of the same compound?
**A.** The IC50 was 3.88 µM.

**Q.** Which IC50 (Plasmodium falciparum [1]) does the source give for `COc1cccc(NC(=S)N2CCN(c3nc(N4CCC5(CC4)CC(=O)c4ccccc4O5)c4ccccc4n3)CC2)c1` here?
**A.** Its IC50 is 3.87 µM.

**Q.** And the “Ratio IC50” value [3]?
**A.** The value was 1.47.

**Q.** And the IC50 (Plasmodium falciparum [2])?
**A.** The IC50 was 5.68 µM.

**Q.** What does the source list for `O=C1CC2(CCN(c3nc(N4CCN(C(=S)Nc5cccc(Cl)c5)CC4)nc4ccccc34)CC2)Oc2ccccc21`?
**A.** IC50 (Plasmodium falciparum [1]): > 15 µM; IC50 (Plasmodium falciparum [2]): 6.37 µM

**Q.** Which results are given for `O=C1CC2(CCN(c3nc(N4CCN(C(=S)Nc5ccc(F)c(Cl)c5)CC4)nc4ccccc34)CC2)Oc2ccccc21`?
**A.** IC50 (Plasmodium falciparum [1]): 3.56 µM; IC50 (A549): 58.3 µM; Ratio IC50 [3]: 0.89; selectivity ratio [4]: 18.3; Activity (Plasmodium falciparum [5]): Active; selectivity ratio [6]: 16.4; IC50 [7]: 3.9 µM; Activity (Plasmodium falciparum [8]): Active; selectivity ratio [9]: > 314; IC50 [10]: 4.9 µM; IC50 at 72 h [11]: > 1000 µM; Activity [12]: Non-toxic; selectivity ratio [13]: > 281; Activity (Plasmodium falciparum [14]): Active; IC50 (Plasmodium falciparum [2]): 3.18 µM

**Q.** For `O=C1CC2(CCN(c3nc(N4CCN(C(=S)Nc5ccc(F)c(F)c5)CC4)nc4ccccc34)CC2)Oc2ccccc21`, which IC50 (Plasmodium falciparum [1]) is on record?
**A.** Its IC50 is over 15 µM.

**Q.** And the IC50 (Plasmodium falciparum [2])?
**A.** Its IC50 is 17.7 µM.

**Q.** What does the source list for `O=C1CC2(CCN(c3nc(N4CCN(C(=S)Nc5ccc(F)cc5)CC4)nc4ccccc34)CC2)Oc2ccccc21`?
**A.** IC50 (Plasmodium falciparum [1]): 8.98 µM; IC50 (A549): 307 µM; Ratio IC50 [3]: 0.52; selectivity ratio [4]: 65.8; selectivity ratio [6]: 34.1; IC50 [7]: 11.4 µM; selectivity ratio [9]: > 215; IC50 [10]: 14.4 µM; IC50 at 72 h [11]: > 1000 µM; selectivity ratio [13]: > 111; IC50 (Plasmodium falciparum [2]): 4.66 µM

**Q.** For `O=C1CC2(CCN(c3nc(N4CCN(C(=S)Nc5ccc(F)cc5F)CC4)nc4ccccc34)CC2)Oc2ccccc21`, which IC50 (Plasmodium falciparum [1]) is on record?
**A.** Its IC50 is over 15 µM.

**Q.** And the IC50 (Plasmodium falciparum [2])?
**A.** The IC50 was 5.28 µM.

**Q.** With `O=C1CC2(CCN(c3nc(N4CCN(C(=S)Nc5cccc(C(F)(F)F)c5)CC4)nc4ccccc34)CC2)Oc2ccccc21` as the compound, how does the IC50 (Plasmodium falciparum [1]) read?
**A.** The IC50 was over 15 µM.

**Q.** And the IC50 (Plasmodium falciparum [2])?
**A.** Its IC50 is 7.97 µM.

**Q.** For `CC(C)C[C@H](NC(=O)[C@@H]1O[C@H]1C(=O)O)C(=O)NCCCCN=C(N)N`, which IC50 [7] is on record?
**A.** Its IC50 is 0.0544 µM.

**Q.** And the IC50 [10]?
**A.** The IC50 was 0.116 µM.

**Q.** Which results are given for `O=C1CC2(CCN(c3nc(N4CCN(C(=S)Nc5ccc(Br)cc5)CC4)nc4ccccc34)CC2)Oc2ccccc21`?
**A.** IC50 (Plasmodium falciparum [1]): 4.84 µM; Ratio IC50 [3]: 1.51; IC50 (Plasmodium falciparum [2]): 7.29 µM

**Q.** With `O=C1CC2(CCN(c3nc(N4CCN(C(=S)Nc5ccccc5)CC4)nc4ccccc34)CC2)Oc2ccccc21` as the compound, how does the IC50 (Plasmodium falciparum [1]) read?
**A.** The IC50 was over 15 µM.

**Q.** What about the IC50 (Plasmodium falciparum [2]) of the same compound?
**A.** Its IC50 is 24.7 µM.

**Q.** With `C[C@H]1Cc2c([nH]c3cc(Cl)c(F)cc23)[C@@]2(N1)C(=O)Nc1ccc(Cl)cc12` [CIPARGAMIN] as the compound, how does the IC50 [15] read?
**A.** The IC50 was 0.001 µM.

**Q.** Which results are given for `O=C1CC2(CCN(c3nc(N4CCN(C(=S)Nc5ccccc5Cl)CC4)nc4ccccc34)CC2)Oc2ccccc21`?
**A.** IC50 (Plasmodium falciparum [1]): 4.43 µM; IC50 (A549): 67.2 µM; Ratio IC50 [3]: 0.9; selectivity ratio [4]: 16.9; Activity (Plasmodium falciparum [5]): Active; selectivity ratio [6]: 15.2; IC50 [7]: 4.6 µM; Activity (Plasmodium falciparum [8]): Active; selectivity ratio [9]: > 251; IC50 [10]: 5.9 µM; IC50 at 72 h [11]: > 1000 µM; Activity [12]: Non-toxic; selectivity ratio [13]: > 226; Activity (Plasmodium falciparum [14]): Active; IC50 (Plasmodium falciparum [2]): 3.98 µM

**Q.** Which results are given for `O=C1CC2(CCN(c3nc(N4CCN(C(=S)NCc5ccccc5)CC4)nc4ccccc34)CC2)Oc2ccccc21`?
**A.** IC50 (Plasmodium falciparum [1]): 14.4 µM; IC50 (A549): 214 µM; Ratio IC50 [3]: 0.33; selectivity ratio [4]: 44.7; selectivity ratio [6]: 14.9; IC50 [7]: 10.4 µM; selectivity ratio [9]: > 209; IC50 [10]: 10.8 µM; IC50 at 72 h [11]: > 1000 µM; selectivity ratio [13]: > 69.6; IC50 (Plasmodium falciparum [2]): 4.79 µM

**Q.** Which IC50 (Plasmodium falciparum [1]) does the source give for `Cc1ccc(NC(=S)N2CCN(c3nc(N4CCC5(CC4)CC(=O)c4ccccc4O5)c4ccccc4n3)CC2)cc1` here?
**A.** The IC50 was over 15 µM.

**Q.** What about the IC50 (Plasmodium falciparum [2]) of the same compound?
**A.** Its IC50 is 16.1 µM.

**Q.** For `CCc1nc(N)nc(N)c1-c1ccc(Cl)cc1` [PYRIMETHAMINE], which IC50 (Plasmodium falciparum [1]) is on record?
**A.** The IC50 was 0.129 µM.

**Q.** Which results are given for `COc1ccccc1NC(=S)N1CCN(c2nc(N3CCC4(CC3)CC(=O)c3ccccc3O4)c3ccccc3n2)CC1`?
**A.** IC50 (Plasmodium falciparum [1]): 5.12 µM; IC50 (A549): 82.5 µM; Ratio IC50 [3]: 0.66; selectivity ratio [4]: 24.1; Activity (Plasmodium falciparum [5]): Active; selectivity ratio [6]: 16.1; IC50 [7]: 5.4 µM; Activity (Plasmodium falciparum [8]): Active; selectivity ratio [9]: > 292; IC50 [10]: 6.2 µM; IC50 at 72 h [11]: > 1000 µM; Activity [12]: Non-toxic; selectivity ratio [13]: > 195; Activity (Plasmodium falciparum [14]): Active; IC50 (Plasmodium falciparum [2]): 3.42 µM

**Q.** For `COc1ccc(NC(=S)N2CCN(c3nc(N4CCC5(CC4)CC(=O)c4ccccc4O5)c4ccccc4n3)CC2)cc1`, which IC50 (Plasmodium falciparum [1]) is on record?
**A.** The IC50 was over 15 µM.

**Q.** What about the IC50 (Plasmodium falciparum [2]) of the same compound?
**A.** The IC50 was 23.3 µM.

**Q.** With `Cc1cccc(C)c1NC(=S)N1CCN(c2nc(N3CCC4(CC3)CC(=O)c3ccccc3O4)c3ccccc3n2)CC1` as the compound, how does the IC50 (Plasmodium falciparum [1]) read?
**A.** The IC50 was 7.12 µM.

**Q.** And the IC50 (A549)?
**A.** The IC50 was 102 µM.

**Q.** What about the “Ratio IC50” value [3] of the same compound?
**A.** Its value is 0.68.

**Q.** And the selectivity ratio [4]?
**A.** Its selectivity ratio is 21.

**Q.** And the Activity (Plasmodium falciparum [5])?
**A.** The Activity was “Active”.

**Q.** And the selectivity ratio [6]?
**A.** The selectivity ratio was 14.3.

**Q.** And the IC50 [7]?
**A.** The IC50 was 5.9 µM.

**Q.** And the Activity (Plasmodium falciparum [8])?
**A.** Its Activity is “Active”.

**Q.** And the selectivity ratio [9]?
**A.** The selectivity ratio was over 207.

**Q.** What about the IC50 [10] of the same compound?
**A.** Its IC50 is 6.4 µM.

**Q.** What about the IC50 at 72 h [11] of the same compound?
**A.** The IC50 at 72 h was over 1000 µM.

**Q.** And the Activity [12]?
**A.** Its Activity is “Non-toxic”.

**Q.** And the selectivity ratio [13]?
**A.** Its selectivity ratio is over 140.

**Q.** And the Activity (Plasmodium falciparum [14])?
**A.** The Activity was “Active”.

**Q.** What about the IC50 (Plasmodium falciparum [2]) of the same compound?
**A.** Its IC50 is 4.83 µM.
